Test [1] has as its target neutral endopeptidase 24.11 (NEP) (Rattus norvegicus, UniProt P07861). To be noted: for NEP inhibition in vivo, as reflected by potentiation of plasma ANPir: oral administration, conscious Sprague-Dawley rats infused with exogenous ANP. How it is done: (§1) Representative studies are carried out with trisodium [3-((1S,3R)-1-biphenyl-4-ylmethyl-3-ethoxycarbonyl-1-butylcarbamoyl)propionate-(S)-3′-methyl-2′- pentanoyl{2″-(tetrazol-5-ylate)biphenyl-4′-ylmethyl}amino)butyrate] hemipentahydrate, e.g. applying the following methodology: • The antihypertensive and neutral endopeptidase 24.11 (NEP)-inhibitory activities of trisodium [3-((1S,3R)-1-biphenyl-4-ylmethyl-3-ethoxycarbonyl-1-butylcarbamoyl)propionate-(S)-3′-methyl-2′-(pentanoyl{2″-tetrazol-5-ylate)biphenyl-4′-ylmethyl}amino)butyrate] hemipentahydrate is assessed in conscious rats. The blood pressure-lowering effect is evaluated in double-transgenic rats (dTGRs) that overexpress both human renin and its substrate, human angiotensinogen (Bohlender, et al, High human renin hypertension in transgenic rats. Hypertension; 29(1 Pt 2):428-34, 1997). […] The NEP-inhibitory effect of trisodium [3-((1 S,3R)-1-biphenyl-4-ylmethyl-3-ethoxycarbonyl-1-butylcarbamoyl)propionate-(S)-3′-methyl-2′-(pentanoyl{2″-(tetrazol-5-ylate)biphenyl-4′-ylmethyl}amino)butyrate] hemipentahydrate is determined in conscious Sprague-Dawley rats infused with exogenous atrial natriuretic peptide (ANP). Potentiation of plasma ANP levels is used as an index of NEP inhibition in vivo. In both models, trisodium [3-((1S,3R)-1-biphenyl-4-ylmethyl-3-ethoxycarbonyl-1-butylcarbamoyl)propionate-(S)-3′-methyl-2′-(pentanoyl{2″-(tetrazol-5-ylate)biphenyl-4′-ylmethyl}amino)butyrate] hemipentahydrate is administered orally as a powder in gelatin mini capsules. […] Antihypertensive Effect In Vivo
Rat ANP(1-28) is infused intravenously at a rate of 450 ng/kg/min in conscious, chronically cannulated, male Sprague-Dawley rats. After one hour of infusion, rats are randomly assigned to one of six groups: untreated control, vehicle (empty capsule) control, or one of four doses of drug (2, 6, 20, or 60 mg/kg, p.o.). ANP infusion is continued for an additional eight hours. Blood samples are collected for measuring plasma ANPir by a commercial enzyme immunoassay kit at −60 min (i.e., before initiating ANP infusion), −30 min (after 30 min of ANP infusion), 0 min (“baseline”; after 60 min of ANP infusion but before dosing with drug or its vehicle), and at 0.25, 0.5,1, 2, 3, 4, 5, 6, 7, and 8 hr post-dosing.

Test [2] relates to double-transgenic rats (dTGRs) that overexpress both human renin and its substrate, human angiotensinogen. How it is done:
as §1
The dTGRs are instrumented with radiotelemetry transmitters for continuous measurement of arterial blood pressure and heart rate. Animals are randomly assigned to vehicle (empty capsule) or treatment (at 2, 6, 20 or 60 mg/kg, p.o.) groups.

Where [3] appears, read: 2, 6, 20 or 60 mg/kg, p.o., rat ANP(1-28) infused i.v. at 450 ng/kg/min.

Read-outs that look alike come from different tables or passages of the source.

Sequence of neutral endopeptidase 24.11 (NEP) (P07861 whole entry, the tested form may be a part): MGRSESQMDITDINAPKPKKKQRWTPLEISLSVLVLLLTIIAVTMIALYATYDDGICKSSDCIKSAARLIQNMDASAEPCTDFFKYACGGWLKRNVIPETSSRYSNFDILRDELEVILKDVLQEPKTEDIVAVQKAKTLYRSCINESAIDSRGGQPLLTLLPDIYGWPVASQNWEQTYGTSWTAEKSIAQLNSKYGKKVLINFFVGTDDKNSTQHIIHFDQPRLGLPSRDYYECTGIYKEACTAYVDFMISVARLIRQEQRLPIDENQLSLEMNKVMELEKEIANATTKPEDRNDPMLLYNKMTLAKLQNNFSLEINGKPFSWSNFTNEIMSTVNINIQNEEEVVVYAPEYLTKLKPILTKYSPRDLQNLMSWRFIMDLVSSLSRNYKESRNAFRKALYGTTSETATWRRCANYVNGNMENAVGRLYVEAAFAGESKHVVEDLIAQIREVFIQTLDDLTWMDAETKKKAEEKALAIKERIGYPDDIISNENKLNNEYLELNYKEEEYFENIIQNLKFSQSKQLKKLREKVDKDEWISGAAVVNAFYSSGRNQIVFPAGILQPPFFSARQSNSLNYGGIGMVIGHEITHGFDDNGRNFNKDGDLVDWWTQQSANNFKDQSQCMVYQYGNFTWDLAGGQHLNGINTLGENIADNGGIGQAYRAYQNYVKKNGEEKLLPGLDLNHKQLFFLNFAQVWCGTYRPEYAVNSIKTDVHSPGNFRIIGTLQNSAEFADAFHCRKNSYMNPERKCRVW

As to “trisodium [3-((1S,3R)-1-biphenyl-4-ylmethyl-3-ethoxycarbonyl-1-butylcarbamoyl)propionate-(S)-3′-methyl-2′-(pentanoyl{2″-(tetrazol-5-ylate)biphenyl-4′-ylmethyl}amino)butyrate] hemipentahydrate”, in test [1] (setting [3]), the “plasma ANPir” value is on record as “dose-dependently augments ANPir” and the “time to augmentation of plasma ANPir after dosing” value was at most 15 min. Also, in test [1], the “NEP inhibition in vivo, as reflected by potentiation of plasma ANPir” value was “rapidly and dose-dependently inhibits NEP with a long duration of action”. Further, the “NEP inhibition in vivo, as reflected by potentiation of plasma ANPir” value in test [1] (listed as LCZ696) was “rapidly and dose-dependently inhibited NEP with a long duration of action”. Further, in test [2] (2, 6, 20 or 60 mg/kg, p.o., baseline 24-hr MAP approximately 170-180 mmHg), the “mean arterial pressure (MAP)” value is given as “dose-dependently reduces MAP”. Besides, the antihypertensive effect entry in test [2] (oral administration, conscious dTGRs, a rat model of fulminant hypertension) was “dose-dependent and long-lasting antihypertensive effect”. In addition, the “MAP, difference from vehicle controls” value in test [2] (three highest doses (of 2, 6, 20, 60 mg/kg, p.o.)) is recorded as “significantly different from the vehicle controls”.

For the origin of these results see patent US8877938B2, “Compounds containing S-N-valeryl-N-{[2′-(1H-tetrazole-5-yl)-biphenyl-4-yl]-methyl}-valine and (2R,4S)-5-biphenyl-4-yl-4-(3-carboxy-propionylamino)-2-methyl-pentanoic acid ethyl ester moieties and cations” (Novartis Pharmaceuticals Corporation, priority 2005, dated 2014).
